Laboratory results as given in patent publication US9725465B2, “Biaryl acetamide compounds and methods of use thereof” (Ambit Biosciences Corporation, priority 2013, dated 2017).
pIC50, pKd: −log10 of the molar value.

Key:
FLT3 kinase = FLT3 kinase (Homo sapiens (Human), UniProt P36888); assay: Competition binding assay (Kd), FLT3; details: competition binding assay
KIT kinase = KIT kinase (Homo sapiens (Human), UniProt P10721); assay: Competition binding assay (Kd), KIT; details: competition binding assay
Summary of the method: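 Kinase, as T7 phage fusion or HEK-293-expressed DNA-tagged protein, competed off immobilised ligand beads by test compound (eleven-point threefold dilutions, from 100× DMSO stocks). Eluted kinase quantified by qPCR to derive Kd; DMSO used as control.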

FLT3-ITD = FLT3-ITD (Homo sapiens (Human), UniProt P36888, INS600HVDFREYEYD); assay: pFLT3 MSD assay, Ba/F3 FLT3-ITD; assay type: cell-based; details: Ba/F3 FLT3-ITD cells, 2 hours, read-out: BaF3-FLT3-ITD pFlt3 IC50
Sequence of FLT3-ITD (P36888 other isoform, or with tags, fused parts or gaps limits assumed, stated change not applied): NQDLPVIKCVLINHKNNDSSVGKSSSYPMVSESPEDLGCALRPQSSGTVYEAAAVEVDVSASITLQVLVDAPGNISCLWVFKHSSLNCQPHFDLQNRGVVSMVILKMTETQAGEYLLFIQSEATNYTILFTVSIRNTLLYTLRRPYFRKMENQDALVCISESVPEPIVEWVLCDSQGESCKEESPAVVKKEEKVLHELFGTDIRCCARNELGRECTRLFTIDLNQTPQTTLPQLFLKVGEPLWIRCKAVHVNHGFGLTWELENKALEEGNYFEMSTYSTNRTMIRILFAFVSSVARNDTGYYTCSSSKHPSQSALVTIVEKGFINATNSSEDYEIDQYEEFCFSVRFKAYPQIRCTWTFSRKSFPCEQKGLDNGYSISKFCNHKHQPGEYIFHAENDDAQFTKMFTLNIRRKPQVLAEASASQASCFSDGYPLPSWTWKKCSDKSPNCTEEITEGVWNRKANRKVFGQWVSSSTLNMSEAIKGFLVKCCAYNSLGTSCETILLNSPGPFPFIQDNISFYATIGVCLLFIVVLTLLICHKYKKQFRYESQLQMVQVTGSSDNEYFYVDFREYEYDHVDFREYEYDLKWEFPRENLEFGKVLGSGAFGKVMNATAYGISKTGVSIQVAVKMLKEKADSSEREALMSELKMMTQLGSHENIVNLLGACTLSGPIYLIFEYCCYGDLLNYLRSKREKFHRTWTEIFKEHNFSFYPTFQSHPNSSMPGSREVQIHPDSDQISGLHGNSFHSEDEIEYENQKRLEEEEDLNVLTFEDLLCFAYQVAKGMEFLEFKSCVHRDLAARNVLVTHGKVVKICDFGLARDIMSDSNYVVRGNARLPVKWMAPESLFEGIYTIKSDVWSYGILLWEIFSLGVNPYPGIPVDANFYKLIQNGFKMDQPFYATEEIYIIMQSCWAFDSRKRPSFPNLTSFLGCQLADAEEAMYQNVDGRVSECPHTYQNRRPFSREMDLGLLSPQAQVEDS

Sequence of FLT3 kinase (P36888 27-993): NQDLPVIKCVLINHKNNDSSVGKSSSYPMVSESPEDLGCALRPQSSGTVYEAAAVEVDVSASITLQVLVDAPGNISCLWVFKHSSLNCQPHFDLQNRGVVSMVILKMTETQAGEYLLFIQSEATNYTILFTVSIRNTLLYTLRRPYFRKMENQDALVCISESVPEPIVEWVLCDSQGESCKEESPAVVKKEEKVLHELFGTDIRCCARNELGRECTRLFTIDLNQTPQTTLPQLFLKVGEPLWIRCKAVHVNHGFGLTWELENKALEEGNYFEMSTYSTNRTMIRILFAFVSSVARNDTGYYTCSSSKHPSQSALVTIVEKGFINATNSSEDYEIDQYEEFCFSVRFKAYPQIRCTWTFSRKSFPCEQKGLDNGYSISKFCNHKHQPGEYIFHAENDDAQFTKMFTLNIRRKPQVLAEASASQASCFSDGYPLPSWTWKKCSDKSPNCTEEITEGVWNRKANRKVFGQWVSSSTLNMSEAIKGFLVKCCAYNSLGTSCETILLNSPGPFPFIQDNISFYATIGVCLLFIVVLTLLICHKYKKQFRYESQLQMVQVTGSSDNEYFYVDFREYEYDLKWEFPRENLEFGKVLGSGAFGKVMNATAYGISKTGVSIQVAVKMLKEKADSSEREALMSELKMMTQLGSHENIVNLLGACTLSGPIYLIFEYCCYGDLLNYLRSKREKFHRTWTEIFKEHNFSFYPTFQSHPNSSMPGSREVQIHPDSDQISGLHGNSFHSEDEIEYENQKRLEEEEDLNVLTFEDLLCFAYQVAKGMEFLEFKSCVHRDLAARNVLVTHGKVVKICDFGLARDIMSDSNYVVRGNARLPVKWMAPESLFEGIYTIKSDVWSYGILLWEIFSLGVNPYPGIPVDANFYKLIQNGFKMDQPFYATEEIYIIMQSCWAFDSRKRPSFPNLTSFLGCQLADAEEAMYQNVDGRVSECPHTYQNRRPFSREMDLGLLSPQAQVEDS
Sequence of KIT kinase (P10721 26-976): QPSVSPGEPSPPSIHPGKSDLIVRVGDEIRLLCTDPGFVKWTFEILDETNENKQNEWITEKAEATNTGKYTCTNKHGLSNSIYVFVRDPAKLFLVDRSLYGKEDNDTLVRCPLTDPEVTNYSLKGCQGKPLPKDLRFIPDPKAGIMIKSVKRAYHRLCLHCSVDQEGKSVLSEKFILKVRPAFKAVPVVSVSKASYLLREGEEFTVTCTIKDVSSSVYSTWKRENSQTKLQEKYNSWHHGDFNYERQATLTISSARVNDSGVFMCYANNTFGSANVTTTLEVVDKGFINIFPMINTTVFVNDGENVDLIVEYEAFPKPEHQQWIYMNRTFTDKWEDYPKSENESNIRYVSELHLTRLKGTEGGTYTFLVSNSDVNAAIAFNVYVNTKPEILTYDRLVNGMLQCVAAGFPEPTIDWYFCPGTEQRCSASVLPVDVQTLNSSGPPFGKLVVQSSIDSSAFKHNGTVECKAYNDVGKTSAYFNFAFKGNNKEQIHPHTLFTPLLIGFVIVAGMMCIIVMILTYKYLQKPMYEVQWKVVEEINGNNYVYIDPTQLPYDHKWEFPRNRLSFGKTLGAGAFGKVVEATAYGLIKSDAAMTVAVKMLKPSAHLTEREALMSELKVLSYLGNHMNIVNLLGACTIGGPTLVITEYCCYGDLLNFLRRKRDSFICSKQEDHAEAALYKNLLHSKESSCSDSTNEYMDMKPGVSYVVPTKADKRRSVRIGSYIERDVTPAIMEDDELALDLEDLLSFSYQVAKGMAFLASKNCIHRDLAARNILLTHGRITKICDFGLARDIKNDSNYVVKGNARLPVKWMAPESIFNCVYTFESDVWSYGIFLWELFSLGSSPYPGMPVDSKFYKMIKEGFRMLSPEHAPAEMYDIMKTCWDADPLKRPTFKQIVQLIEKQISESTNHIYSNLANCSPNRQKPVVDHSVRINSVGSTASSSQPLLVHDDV

SMILES	pKd (FLT3 kinase)	pKd (KIT kinase)	pIC50 (FLT3-ITD)
COc1cc2ncc(-c3ccc(CC(=O)Nc4cc(C5(C(F)(F)F)CC5)on4)c(F)c3)nc2cc1O [Example 157, 2-[2-fluoro-4-(7-hydroxy-6-methoxy-quinoxalin-2-yl)phenyl]-N-[5-[1-(trifluoro-methyl)cyclopropyl]isoxazol-3-yl]acetamide]	> 8.30	> 8.30	> 8.00
COc1cc2ncc(-c3ccc(CC(=O)Nc4cc(C5(C(F)(F)F)CC5)on4)c(F)c3)nc2cc1OCCN(C)C [Example 158, 2-[4-[7-[2-(dimethylamino)ethoxy]-6-methoxy-quinoxalin-2-yl]-2-fluoro-phenyl]-N-[5-[1-(trifluoromethyl)cyclo-propyl]isoxazol-3-yl]acetamide]	> 8.30	> 8.30	> 8.00
COCCOc1cc2ncc(-c3ccc(CC(=O)Nc4cc(C(C)(C)C(F)(F)F)on4)c(F)c3)nc2cc1OC [Example 159, 2-[2-fluoro-4-[7-methoxy-6-(2-methoxy-ethoxy)quinoxalin-2-yl]phenyl]-N-[5-(2,2,2-trifluoro-1,1-dimethyl-ethyl)isoxazol-3-yl]acetamide]	> 8.30	> 8.30	> 8.00
COCCOc1cc2nc(-c3ccc(CC(=O)Nc4cc(C(C)(C)C(F)(F)F)on4)c(F)c3)cnc2cc1OC [Example 160, 2-[2-fluoro-4-[6-methoxy-7-(2-methoxy-ethoxy)quinoxalin-2-yl]phenyl]-N-[5-(2,2,2-trifluoro-1,1-dimethyl-ethyl)isoxazol-3-yl]acetamide]	> 8.30	> 8.30	> 8.00
COCCOc1cc2nc(-c3ccc(CC(=O)Nc4cc(C(C)(C)C)nn4C)c(F)c3)cnc2cc1OC [Example 161, N-(5-tert-butyl-2-methyl-pyrazol-3-yl)-2-[2-fluoro-4-[6-methoxy-7-(2-methoxyethoxy)quinoxalin-2-yl]phenyl]acetamide]	> 8.30	> 8.30	> 8.00
COCCOc1cc2ncc(-c3ccc(CC(=O)Nc4cc(C(C)(C)C)nn4C)c(F)c3)nc2cc1OC [Example 162, N-(5-tert-butyl-2-methyl-pyrazol-3-yl)-2-[2-fluoro-4-[7-methoxy-6-(2-methoxyethoxy)quinoxalin-2-yl]phenyl]acetamide]	> 8.30	> 8.30	> 8.00
COc1cc2nc(-c3ccc(CC(=O)Nc4cc(C5(C(F)(F)F)CC5)on4)c(F)c3)cnc2cc1OCc1ccccc1 [Example 163, 2-[4-(6-benzyloxy-7-methoxy-quinoxalin-2-yl)-2-fluoro-phenyl]-N-[5-[1-(trifluoromethyl)cyclo-propyl]isoxazol-3-yl]acetamide]	< 7.30	< 7.30	> 8.00
COc1cc2nc(-c3ccc(CC(=O)Nc4cc(C(C)(C)C(F)(F)F)on4)c(F)c3)cnc2cc1O [Example 164, 2-[2-fluoro-4-(6-hydroxy-7-methoxy-quinoxalin-2-yl)phenyl]-N-[5-(2,2,2-trifluoro-1,1-dimethyl-ethyl)isoxazol-3-yl]acetamide]	> 8.30	7.70 to 8.30	> 8.00

Next, values leading:

pKd (FLT3 kinase)	pKd (KIT kinase)	pIC50 (FLT3-ITD)	SMILES
> 8.30	> 8.30	> 8.00	COc1cc2nc(-c3ccc(CC(=O)Nc4cc(C(C)(C)C(F)(F)F)on4)c(F)c3)cnc2cc1OCCO [Example 165, 2-[2-fluoro-4-[6-(2-hydroxyethoxy)-7-methoxy-quinoxalin-2-yl]phenyl]-N-[5-(2,2,2-trifluoro-1,1-dimethyl-ethyl)isoxazol-3-yl]acetamide]
> 8.30	> 8.30	> 8.00	COc1cc2nc(-c3ccc(CC(=O)Nc4cc(C5(C(F)(F)F)CC5)on4)c(F)c3)cnc2cc1OCCN=[N+]=[N-] [Example 166, 2-[4-[6-(2-azidoethoxy)-7-methoxy-quinoxalin-2-yl]-2-fluoro-phenyl]-N-[5-[1-(trifluoromethyl)cyclo-propyl]isoxazol-3-yl]acetamide]
> 8.30	> 8.30	> 8.00	COc1cc2nc(-c3ccc(CC(=O)Nc4cc(C5(C(F)(F)F)CC5)on4)c(F)c3)cnc2cc1OCCN [Example 167, 2-[4-[6-(2-aminoethoxy)-7-methoxy-quinoxalin-2-yl]-2-fluoro-phenyl]-N-[5-[1-(trifluoromethyl)cyclo-propyl]isoxazol-3-yl]acetamide]
> 8.30	> 8.30	> 8.00	COc1cc2nc(-c3ccc(CC(=O)Nc4cc(C5(C(F)(F)F)CC5)on4)c(F)c3)cnc2cc1OCCNC(C)=O [Example 168, 2-[4-[6-(2-acetamidoethoxy)-7-methoxy-quinoxalin-2-yl]-2-fluoro-phenyl]-N-[5-[1-(trifluoromethyl)cyclo-propyl]isoxazol-3-yl]acetamide]
> 8.30	> 8.30	> 8.00	COc1cc2nc(C)c(-c3ccc(CC(=O)Nc4cc(C5(C(F)(F)F)CC5)on4)c(F)c3)nc2cc1OC [Example 169, 2-[4-(6,7-dimethoxy-3-methyl-quinoxalin-2-yl)-2-fluoro-phenyl]-N-[5-[1-(trifluoromethyl)cyclo-propyl]isoxazol-3-yl]acetamide]
> 8.30	> 8.30	> 8.00	COc1cc2ncc(-c3ccc(CC(=O)Nc4cc(C(C)(C)C(F)(F)F)on4)c(F)c3)nc2cc1OCCO [Example 170, 2-[2-fluoro-4-[7-(2-hydroxyethoxy)-6-methoxy-quinoxalin-2-yl]phenyl]-N-[5-(2,2,2-trifluoro-1,1-dimethyl-ethyl)isoxazol-3-yl]acetamide]
> 8.30	> 8.30	> 8.00	COCCOc1cc2nc(-c3ccc(CC(=O)Nc4cc(C5(C(F)(F)F)CC5)on4)c(F)c3)cnc2cc1OC [compound 77]
